According to ChEMBL document CHEMBL1133195, “Structure-activity relationships study at the 3'-N position of paclitaxel. Part 2: synthesis and biological evaluation of 3'-N-thiourea- and 3'-N-thiocarbamate-bearing paclitaxel analogues” (Bioorg Med Chem Lett, 2000):
pIC50: −log10 of the molar value.

Columns and labels:
[1] = Cytotoxicity ratio was determined by IC50 to that of IC50 of paclitaxel; assay type: functional
HCT-116 = test: In vitro cytotoxicity against human colon cancer cell lines (HCT116); assay type: functional, cell-based
[2] = Ratio fo the (IC50-R) compound relative to (IC50-S) paclitaxel sensitive HCT116 human colon cancer cell line; assay type: functional, HCT-116
[3] = Ratio relative to paclitaxel (EC0.01) was evaluated in a tubulin polymerization assay; assay type: functional
Mus musculus [4] = test: In vivo anticancer activity against murine M 109 lung carcinoma after intraperitoneal administration at a 1.25 mg/kg/inj concentration; assay type: functional
Mus musculus [5] = test: In vivo anticancer activity against murine M 109 lung carcinoma after intraperitoneal administration at a 32 mg/kg/inj concentration; assay type: functional
Mus musculus [6] = test: In vivo anticancer activity against murine M 109 lung carcinoma after intraperitoneal administration at a 60 mg/kg/inj concentration; Range 145-218; assay type: functional
Mus musculus [7] = test: In vivo anticancer activity against murine M 109 lung carcinoma after intraperitoneal administration at a 40 mg/kg/inj concentration; assay type: functional
Mus musculus [8] = test: In vivo anticancer activity against murine M 109 lung carcinoma after intraperitoneal administration at a 50 mg/kg/inj concentration; assay type: functional

SMILES | Ratio [1] | pIC50 (HCT-116) | Ratio [2] | Ratio [3] | T/C (Mus musculus [4]) | T/C (Mus musculus [5]) | T/C (Mus musculus [6]) | T/C (Mus musculus [7]) | T/C (Mus musculus [8])
CC(=O)O[C@H]1C(=O)[C@]2(C)[C@@H](O)CC3OC[C@@]3(OC(C)=O)[C@H]2[C@H](OC(=O)c2ccccc2)C2(O)C[C@H](OC(=O)[C@H](O)[C@@H](/N=C(\S)NC(C)(C)C)c3ccccc3)C(C)=C1C2(C)C (stereo partly specified) | ~50 | 7.01 | 31 | 19 |  |  |  |  | 
CC(=O)O[C@H]1C(=O)[C@]2(C)[C@@H](O)CC3OC[C@@]3(OC(C)=O)[C@H]2[C@H](OC(=O)c2ccccc2)C2(O)C[C@H](OC(=O)[C@H](O)[C@@H](NC(=O)SC(C)(C)C)c3ccco3)C(C)=C1C2(C)C (stereo partly specified) | 0.3 | 9.05 | 2.2 | 0.1 | 134 |  |  |  | 
CC(=O)O[C@@]12COC1C[C@H](O)[C@@]1(C)C(=O)[C@H](O)C3=C(C)[C@@H](OC(=O)C(O)[C@@H](NC(=O)NC(C)(C)C)c4ccccc4)CC(O)([C@@H](OC(=O)c4ccccc4)[C@@H]12)C3(C)C (stereo partly specified) | 1 | 8.40 | 46.8 | 0.72 |  |  |  |  | 
CC(=O)O[C@H]1C(=O)[C@]2(C)[C@@H](O)CC3OC[C@@]3(OC(C)=O)[C@H]2[C@H](OC(=O)c2ccccc2)C2(O)C[C@H](OC(=O)[C@H](O)[C@@H](NC(=O)SC(C)C)c3ccco3)C(C)=C1C2(C)C (stereo partly specified) | 14.7 | 7.49 | 1.2 | 0.2 |  |  |  |  | 
CC(=O)O[C@H]1C(=O)[C@]2(C)[C@@H](O)CC3OC[C@@]3(OC(C)=O)[C@H]2[C@H](OC(=O)c2ccccc2)C2(O)C[C@H](OC(=O)[C@H](O)[C@@H](NC(=O)OC(C)(C)C)c3ccccc3)C(C)=C1C2(C)C (stereo partly specified) | 0.6 | 8.62 | 12 | 0.66 |  | 177 |  |  | 
CCCC/N=C(\S)N[C@@H](c1ccccc1)[C@@H](O)C(=O)O[C@H]1CC2(O)[C@@H](OC(=O)c3ccccc3)[C@H]3[C@](C)(C(=O)[C@H](OC(C)=O)C(=C1C)C2(C)C)[C@@H](O)CC1OC[C@]13OC(C)=O (stereo partly specified) | 21.8 | 7.30 | 64 | 18 |  |  |  |  | 
CC(=O)O[C@H]1C(=O)[C@@]2(C)[C@H]([C@H](OC(=O)c3ccccc3)[C@]3(O)C[C@H](OC(=O)[C@H](O)[C@@H](NC(=O)c4ccccc4)c4ccccc4)C(C)=C1C3(C)C)[C@]1(OC(C)=O)CO[C@@H]1C[C@@H]2O [PACLITAXEL] |  |  |  |  |  |  | 145 |  | 
CC(=O)O[C@H]1C(=O)[C@]2(C)[C@@H](O)CC3OC[C@@]3(OC(C)=O)[C@H]2[C@H](OC(=O)c2ccccc2)C2(O)C[C@H](OC(=O)[C@H](O)[C@@H](/N=C(\S)NC(C)(C)C)c3ccco3)C(C)=C1C2(C)C (stereo partly specified) | 4.9 | 7.95 | 40 | 1 |  |  |  |  | 
CC(=O)O[C@H]1C(=O)[C@]2(C)[C@@H](O)CC3OC[C@@]3(OC(C)=O)[C@H]2[C@H](OC(=O)c2ccccc2)C2(O)C[C@H](OC(=O)[C@H](O)[C@@H](NC(=O)SC(C)(C)C)c3ccccc3)C(C)=C1C2(C)C (stereo partly specified) | 0.3 | 9.05 | 4.7 | 0.3 |  |  |  |  | 
CCCCSC(=O)N[C@@H](c1ccco1)[C@@H](O)C(=O)O[C@H]1CC2(O)[C@@H](OC(=O)c3ccccc3)[C@H]3[C@](C)(C(=O)[C@H](OC(C)=O)C(=C1C)C2(C)C)[C@@H](O)CC1OC[C@]13OC(C)=O (stereo partly specified) | 0.17 | 9.52 | 21.3 | 0.2 |  |  |  | 139 | 
CCCCSC(=O)N[C@@H](c1ccccc1)[C@@H](O)C(=O)O[C@H]1CC2(O)[C@@H](OC(=O)c3ccccc3)[C@H]3[C@](C)(C(=O)[C@H](OC(C)=O)C(=C1C)C2(C)C)[C@@H](O)CC1OC[C@]13OC(C)=O (stereo partly specified) | 0.88 | 8.24 | 29 | 0.6 |  |  |  |  | 
CC(=O)O[C@H]1C(=O)[C@]2(C)[C@@H](O)CC3OC[C@@]3(OC(C)=O)[C@H]2[C@H](OC(=O)c2ccccc2)C2(O)C[C@H](OC(=O)[C@H](O)[C@@H](/N=C(\S)NCc3ccccc3)c3ccccc3)C(C)=C1C2(C)C (stereo partly specified) | >40 | < 7.06 |  | 12 |  |  |  |  | 
CC(=O)O[C@H]1C(=O)[C@]2(C)[C@@H](O)CC3OC[C@@]3(OC(C)=O)[C@H]2[C@H](OC(=O)c2ccccc2)C2(O)C[C@H](OC(=O)[C@H](O)[C@@H](NC(=O)SCC(C)C)c3ccco3)C(C)=C1C2(C)C (stereo partly specified) | 0.28 | 9.15 | 7.7 | 0.2 |  |  |  |  | 145
CCCC/N=C(\S)N[C@@H](c1ccco1)[C@@H](O)C(=O)O[C@H]1CC2(O)[C@@H](OC(=O)c3ccccc3)[C@H]3[C@](C)(C(=O)[C@H](OC(C)=O)C(=C1C)C2(C)C)[C@@H](O)CC1OC[C@]13OC(C)=O (stereo partly specified) | 4.6 | 7.98 | 252 | 1 |  |  |  |  | 
